The subject of test [1] is gentamicin sensitive Acinetobacter baumannii #2 from Walter Reed. The experiment in a line: MIC, A. baumannii WReed 2. It counts as cell-based. Here is the method:
(§1) The MIC assays are carried out in 150 μL volume in duplicate in 96-well clear flat-bottom plates. The bacterial suspension from an overnight culture growth in appropriate medium is added to a solution of test compound in 4% DMSO in water. Final bacterial inoculum is approximately 10^5-10^6 CFU/well. […] Both ampicillin and tetracycline are used as antibiotic-positive controls in each screening assay for S. pyogenes, E. coli imp-, E. coli, S. aureus, E. faecalis, K. pneumoniae and P. vulgaris. Ciprofloxacin is used as an antibiotic positive control in each screening assay for P. aeruginosa.
(§2) The following compounds were prepared using methods illustrated in the previous examples. The compounds were also examined in standard bacterial assays against E. Coli, S. Aureus, P. aurginosa, K. pneumoniae, P. vulgaris, and A. baumannii to determine activities. Each of the bacterial cultures that are available from ATCC (www.atcc.org) is identified by its ATCC number. A. baumannii is gentamicin sensitive Acinetobacter baumannii #2 from Walter Reed.

For the next test, the system named is K. pneumoniae ATCC 10031. The experiment in a line: MIC, K. pneumoniae ATCC 10031. Format: cell-based. Here is the method:
as §1, §2

In another test the test system is E. coli ATCC 25922. Description: MIC, E. coli ATCC 25922. It counts as cell-based. The protocol: as §1, §2
The next test relates to S. aureus ATCC 13709. The experiment in a line: MIC, S. aureus ATCC 13709. Format: cell-based. The protocol:
as §1, §2

For another test, the system named is P. aurginosa ATCC 29248. The experiment in a line: MIC, P. aurginosa ATCC 29248. It counts as cell-based. The protocol:
as §1, §2

A further test concerns P. aurginosa ATCC 25416. Description: MIC, P. aurginosa ATCC 25416. It counts as cell-based. The protocol: as §1, §2
For another test, the system named is P. vulgaris ATCC 8427. The experiment in a line: MIC, P. vulgaris ATCC 8427. Format: cell-based. The protocol: as §1, §2
Test [2] concerns Staphylococcus aureus (Smith Strain ATCC 13709). The experiment in a line: Staphylococcus aureus mouse protection assay. To be noted: for # Dead mice/Total mice in group: Staph Conc. 10^6, 10% Mucin, the 14th table. It counts as in vivo, mice. Here is the method:
Two of the novel aminoglycoside compounds of the invention were examined for their anitbacterial activity against staphylococcus aureus. Mice were fed with autoclaved commercial food pellets and sterile water ad libitum. Animals were inoculated intraperitoneally with 0.5 mL/mouse of the indicated concentration of S. aureus (ATCC 13709) containing 10% mucin. There were 10 mice in each treatment group and compounds were administered subcutaneously one and 3 hour after infection. Compounds 15a (R4═R5═CH3) and 15j (R4═H, R5═(CH2)2C6H5)) were used at 75 mg/kg, 37.5 mg/kg, 18.8 mg/kg, 9.4 mg/kg, 4.7 mg/kg, 2.3 mg/kg, 1.17 mg/kg and 0.5 mg/kg. Amakacin, paromomycin and neomycin were used as the positive controls at concentrations of 2 mg/kg, 1 mg/kg and 0.5 mg/kg.
Test compound was administered as an aqueous buffer solution (phosphate buffered saline (PBS), pH=7.4).

The test system of a further test is S. Aureus. Description: MIC, S. Aureus. It counts as cell-based. Conditions: Example 105. The gist of the method: (§3)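 Broth microdilution in duplicate, 150 μL: overnight-culture bacteria were added to compound in 4% DMSO in water. Final inoculum was about 10^5–10^6 CFU/well.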
Test [3] has as its system E. coli S30 bacterial extract (pBestLuc firefly luciferase reporter). Description: Coupled bacterial transcription/translation assay. It counts as biochemical. To be noted: Example 105; read-out: Trans/Trans IC50. The gist of the method: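 Coupled transcription/translation of firefly luciferase from 1 μg pBestLuc (tac promoter) in E. coli S30 extract, with or without test compound. Reaction 35 min at 37° C., then functional luciferase detected by luminescence.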

In test [4] the target is 18S ribosomal subunit RNA target. Description: Mass spectrometry based binding assay (FTICR), 18S. Conditions: FTICR mass spectrometry; Example 105. The gist of the method: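 Ligands at varying concentrations were mixed with 2.5 or 5 μM RNA in 100 mM ammonium acetate with 33% isopropyl alcohol, then analysed by negative-mode ESI-FTICR. Complex/free RNA ion ratios plotted against ligand concentration were fitted to a second- or higher-order binding polynomial to give KD.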

Test [5] deals with 16S ribosomal subunit RNA target. Description: Mass spectrometry based binding assay (FTICR), 16S. Conditions: FTICR mass spectrometry; run at 100 nM RNA; Example 105. The gist of the method: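 Binding to the 16S ribosomal subunit RNA target was measured by FTICR mass spectrometry. Ligands or ligand mixtures were prepared at several concentrations in 10 μL of aqueous 100 mM ammonium acetate buffer with 33% isopropyl alcohol. Samples were infused at 1 μL/min into a negative-mode electrospray source, and ions were held 1 sec in an RF-only hexapole. Complex/free RNA ratios versus ligand concentration were fitted to a binding polynomial to obtain KD.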

For a further test, the system named is E. Coli. Description: MIC, E. Coli. To be noted: Example 105. Format: cell-based. The gist of the method:
as §3

Structures are written as SMILES. Marks after values point to notes of the source that are not given here. A value given as a limit tells only on which side of the number the result lay.

As to `NCC1OC(OC2C(CO)OC(OC3C(O)C(N)CC(N)C3OC3OC(CO)C(O)C(O)C3N)C2OCCN(CCCc2ccccc2)CCc2ccccc2)C(N)C(O)C1O` (stereo not shown) [Compound 9ag], the “MIC A. baumannii WReed 2” value in [1] (Example 110) was in the range of 10 to 20 µM. Besides, the “MIC K. pneumoniae ATCC 10031” value with K. pneumoniae ATCC 10031 (Example 110) was in the range of 2.5 to 5 µM. In the test with E. coli ATCC 25922 (Example 110), the “MIC E. coli ATCC 25922” value was 10 to 20 µM. Also, the “MIC S. aureus ATCC 13709” value in the test on S. aureus ATCC 13709 (Example 110) was in the range of 0.6 to 1.2 µM. For the same compound, in the test on P. aurginosa ATCC 29248 (Example 110), the “MIC P. aurginosa ATCC 29248” value was above 40 µM. The “MIC P. aurginosa ATCC 25416” value with P. aurginosa ATCC 25416 (Example 110) was in the range of 10 to 20 µM. Besides, in the test on P. vulgaris ATCC 8427 (Example 110), the “MIC P. vulgaris ATCC 8427” value was in the range of 10 to 20 µM.
Regarding `NCC1OC(OC2C(CO)OC(OC3C(O)C(N)CC(N)C3OC3OC(CNCCc4cccc(C(F)(F)F)c4)C(O)C(O)C3N)C2O)C(N)C(O)C1O` (stereo not shown) [Compound 15u], in [1] (Example 111), the “MIC A. baumannii WReed 2” value was in the range of 10 to 20 µM. For the same compound, in the test on K. pneumoniae ATCC 10031 (Example 111), the “MIC K. pneumoniae ATCC 10031” value was in the range of 0.6 to 1.3 µM. Besides, the “MIC E. coli ATCC 25922” value in the test with E. coli ATCC 25922 (Example 111) fell in the range of 1.3 to 2.5 µM. In the test with S. aureus ATCC 13709 (Example 111), the “MIC S. aureus ATCC 13709” value is 0.3 to 0.6 µM. In addition, the “MIC P. aurginosa ATCC 29248” value in the test with P. aurginosa ATCC 29248 (Example 111) was above 40 µM. In addition, in the test with P. aurginosa ATCC 25416 (Example 111), the “MIC P. aurginosa ATCC 25416” value was above 40 µM. For the same compound, the “MIC P. vulgaris ATCC 8427” value against P. vulgaris ATCC 8427 (Example 111) was above 40 µM.
The term Kd denotes a measure of binding affinity in units of concentration. Consider `NCC1OC(OC2C(CO)OC(OC3C(O)C(N)CC(N)C3OC3OC(CO)C(O)C(O)C3N)C2OCCNCc2cccnc2)C(N)C(O)C1O` (stereo not shown) [Compound 9b], for which the “# Dead mice/Total mice in group” value is reported as 7/10 (10% Mucin) in [2] (0.1 mg/kg in PBS pH=7.4); 3/10 (10% Mucin) in [2] (0.5 mg/kg in PBS pH=7.4); 0/10 (10% Mucin) in test [2] (1 mg/kg in PBS pH=7.4); 0/10 (10% Mucin) in [2] (2 mg/kg in PBS pH=7.4); 0/10 (10% Mucin) in [2] (4.5 mg/kg in PBS pH=7.4); 0/10 (10% Mucin) in test [2] (9 mg/kg in PBS pH=7.4). The “# Dead mice/Total mice in group” value is listed as 0/10 (10% Mucin) in test [2] (18 mg/kg in PBS pH=7.4), 0/10 (10% Mucin) in test [2] (37 mg/kg in PBS pH=7.4), 0/10 (10% Mucin) in [2] (75 mg/kg in PBS pH=7.4) and 6/10 (10% Mucin) in test [2] ([…] in PBS pH=7.4). Besides, the “prevention of lethal bacterial infections in mice” value in test [2] (result in words, summary of the 14th table) is “effective at preventing lethal bacterial infections in mice”. In addition, in the test on S. Aureus, the “MIC S. Aureus” value is 0.6-1^ uM. Also, in test [3], the IC50 came out at 100 nM. In addition, the Kd was determined as 9400 nM in test [4] and 900 nM in [5]. In the test with E. Coli, the “MIC E. Coli.” value was 6-12^b uM.
Turning to `COc1ccc(CCNCCOC2C(OC3C(O)C(N)CC(N)C3OC3OC(CO)C(O)C(O)C3N)OC(CO)C2OC2OC(CN)C(O)C(O)C2N)cc1` (stereo not shown) [Compound 9aj], in test [1] (Example 110), the “MIC A. baumannii WReed 2” value is on record as 2.5-5^ uM. Further, in the test with K. pneumoniae ATCC 10031 (Example 110), the “MIC K. pneumoniae ATCC 10031” value was 1.3 to 2.5 µM. In the test with E. coli ATCC 25922 (Example 110), the “MIC E. coli ATCC 25922” value was in the range of 5 to 10 µM. Moreover, the “MIC S. aureus ATCC 13709” value against S. aureus ATCC 13709 (Example 110) was below 0.6 µM. For the same compound, the “MIC P. aurginosa ATCC 29248” value in the test with P. aurginosa ATCC 29248 (Example 110) was above 40 µM. For the same compound, the “MIC P. aurginosa ATCC 25416” value against P. aurginosa ATCC 25416 (Example 110) is above 40 µM. For the same compound, the “MIC P. vulgaris ATCC 8427” value against P. vulgaris ATCC 8427 (Example 110) fell in the range of 5 to 10 µM.

(Values after US8569264B2, “Antibacterial 4,5-substituted aminoglycoside analogs having multiple substituents” (ISIS Pharmaceuticals, Inc., priority 2005, dated 2013).)
